Test results as given in the Kinase Knowledgebase extract (Sharma et al. 2016).
pIC50: −log10 of the molar value.

Legend:
CDK2 = CDK2 (UniProt P24941); experiment: Enzyme Assay
EGFR = EGFR (UniProt P00533)
CDK2 (human) [1] = molecular target: CDK2 (human) (UniProt P24941); conditions: A431
CDK2 (human) [2] = molecular target: CDK2 (human) (UniProt P24941); experiment: Cell-Based Assay

EGFR, sequence (P00533 whole entry, looked up): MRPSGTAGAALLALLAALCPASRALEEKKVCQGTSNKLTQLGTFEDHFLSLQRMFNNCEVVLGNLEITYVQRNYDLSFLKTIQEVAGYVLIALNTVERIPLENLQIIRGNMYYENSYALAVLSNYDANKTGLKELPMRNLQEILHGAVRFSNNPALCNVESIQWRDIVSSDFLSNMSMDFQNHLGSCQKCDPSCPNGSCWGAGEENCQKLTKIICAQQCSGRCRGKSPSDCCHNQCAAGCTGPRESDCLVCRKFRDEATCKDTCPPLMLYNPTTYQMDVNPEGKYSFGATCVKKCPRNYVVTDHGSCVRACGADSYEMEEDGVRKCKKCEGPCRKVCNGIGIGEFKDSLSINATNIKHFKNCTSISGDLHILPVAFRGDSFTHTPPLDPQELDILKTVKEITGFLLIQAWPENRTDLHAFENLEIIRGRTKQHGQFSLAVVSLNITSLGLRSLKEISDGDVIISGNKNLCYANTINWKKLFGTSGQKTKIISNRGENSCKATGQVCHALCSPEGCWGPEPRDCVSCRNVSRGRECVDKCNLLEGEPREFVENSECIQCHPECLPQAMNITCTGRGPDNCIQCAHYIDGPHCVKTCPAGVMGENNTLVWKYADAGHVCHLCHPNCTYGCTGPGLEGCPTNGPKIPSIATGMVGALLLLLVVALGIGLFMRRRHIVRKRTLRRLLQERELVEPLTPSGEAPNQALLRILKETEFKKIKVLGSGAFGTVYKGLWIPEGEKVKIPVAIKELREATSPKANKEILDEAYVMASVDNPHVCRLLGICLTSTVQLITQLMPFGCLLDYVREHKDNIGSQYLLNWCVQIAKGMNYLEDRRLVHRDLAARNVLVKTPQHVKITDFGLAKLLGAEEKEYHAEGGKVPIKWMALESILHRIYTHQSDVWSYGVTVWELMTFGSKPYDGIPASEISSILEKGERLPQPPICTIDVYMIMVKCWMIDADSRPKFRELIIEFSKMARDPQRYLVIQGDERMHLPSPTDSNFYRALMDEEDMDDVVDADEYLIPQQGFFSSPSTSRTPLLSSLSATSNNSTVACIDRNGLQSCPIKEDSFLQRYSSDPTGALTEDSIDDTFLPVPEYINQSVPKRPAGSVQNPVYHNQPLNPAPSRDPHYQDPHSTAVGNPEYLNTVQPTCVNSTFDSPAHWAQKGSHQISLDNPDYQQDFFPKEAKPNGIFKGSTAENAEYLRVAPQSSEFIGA

| pIC50 (CDK2) | pIC50 (EGFR) | Compound | GI50 (CDK2 (human) [1]) | GI50 (CDK2 (human) [2]; hct-116) | GI50 (CDK2 (human) [2]; snu638) |
| --- | --- | --- | --- | --- | --- |
| < 4.00 | < 4.00 | Cn1ncc2c(NCc3ccc(N)cc3)nc(NCCO)nc21 | 58.9 µM | > 100 µM | 96.8 µM |
| 4.33 | < 4.00 | CC(C)n1ncc2c(NCc3ccc([N+](=O)[O-])cc3)nc(NCCO)nc21 | 32 µM | 77.7 µM | 23.4 µM |
| < 4.00 | < 4.00 | CC(C)n1ncc2c(NCc3ccccc3)nc(N(CCO)CCO)nc21 | 21.9 µM | 47.7 µM | 26.1 µM |
| 4.67 | < 4.00 | Cn1ncc2c(Nc3cccc(F)c3)nc(NCCO)nc21 | 16.3 µM | 28.2 µM | 15.8 µM |
| 4.43 | 4.26 | OCCN(CCO)c1nc(NCc2ccccc2)c2cn[nH]c2n1 | > 100 µM | 93.6 µM | 29 µM |
| 4.24 | < 4.00 | COc1cccc(Nc2nc(N(CCO)CCO)nc3c2cnn3C)c1 | 12.9 µM | 17.2 µM | 10.5 µM |
| < 4.00 | < 4.00 | Cn1ncc2c(Nc3cccc(Br)c3)nc(N(CCO)CCO)nc21 | 2.94 µM | 16.6 µM | 6.2 µM |
| < 4.00 | 4.11 | Cn1ncc2c(NCc3ccccc3)nc(N(CCO)CCO)nc21 | 24.3 µM | 53.4 µM | 25.3 µM |
| 4.53 | < 4.00 | CC(C)n1ncc2c(Nc3cccc(Br)c3)nc(N(CCO)CCO)nc21 | 2.58 µM | 5.06 µM | 4.1 µM |
| 4.18 | < 4.00 | COc1cccc(Nc2nc(N(CCO)CCO)nc3c2cnn3C(C)C)c1 | 4.43 µM | 12.6 µM | 7.92 µM |
| 4.53 | 4.03 | OCCNc1nc(NCc2ccccc2)c2cn[nH]c2n1 | 26.6 µM | 4.5 µM | 20.8 µM |
| < 4.00 | < 4.00 | COc1cccc(Nc2nc(NCCO)nc3c2cnn3C)c1 | 19.1 µM | 90.4 µM | 21.7 µM |
| 4.31 | < 4.00 | CC(C)n1ncc2c(Nc3cccc(F)c3)nc(NCCO)nc21 | 7.8 µM | 19.3 µM | 7.57 µM |
| 5.09 | < 4.00 | OCCNc1nc(Nc2cccc(Br)c2)c2cn[nH]c2n1 | > 100 µM | > 100 µM | 69.2 µM |
| < 4.00 | < 4.00 | Cn1ncc2c(NCc3ccccc3)nc(NCCO)nc21 | 42.7 µM | > 100 µM | 37.1 µM |
| < 4.00 | 4.32 | Cn1ncc2c(Nc3cccc(Br)c3)nc(NCCO)nc21 | 31.9 µM | > 100 µM | 18.2 µM |
| – | – | COc1cccc2c1C(=O)c1c(O)c3c(c(O)c1C2=O)C[C@@](O)(C(=O)CO)CC3O[C@H]1C[C@H](N)[C@H](O)[C@H](C)O1 (some centres not stated) | 0.18 µM | 0.13 µM | – |
| < 4.00 | < 4.00 | COc1cccc(Nc2nc(NCCO)nc3c2cnn3C(C)C)c1 | 13.1 µM | 21.4 µM | 7.55 µM |
| 4.99 | < 4.00 | COc1cccc(Nc2nc(N(CCO)CCO)nc3[nH]ncc23)c1 | > 100 µM | > 100 µM | > 100 µM |
| < 4.00 | < 4.00 | CC(C)n1ncc2c(NCc3ccccc3)nc(NCCO)nc21 | 35.6 µM | 57.6 µM | 25.2 µM |
| < 4.00 | < 4.00 | CC(C)n1ncc2c(NCc3ccc(N)cc3)nc(NCCO)nc21 | 55.3 µM | > 100 µM | 38.2 µM |
| 5.51 | < 4.00 | COc1cccc(Nc2nc(NCCO)nc3[nH]ncc23)c1 | > 100 µM | 38.2 µM | 17.1 µM |
| 6.30 | 4.18 | OCCNc1nc(Nc2cccc(F)c2)c2cn[nH]c2n1 | 28.9 µM | > 100 µM | > 100 µM |
| 6.05 | < 4.00 | OCCN(CCO)c1nc(Nc2cccc(F)c2)c2cn[nH]c2n1 | 54.3 µM | > 100 µM | > 100 µM |
| 5.42 | 4.44 | OCCN(CCO)c1nc(Nc2cccc(Br)c2)c2cn[nH]c2n1 | > 100 µM | > 100 µM | 38.9 µM |
| 4.75 | < 4.00 | Cn1ncc2c(NCc3ccc([N+](=O)[O-])cc3)nc(NCCO)nc21 | 23.4 µM | 48.5 µM | 24.9 µM |
| 4.32 | < 4.00 | CC(C)n1ncc2c(Nc3cccc(F)c3)nc(N(CCO)CCO)nc21 | 6.25 µM | 10.9 µM | 7.95 µM |
| 4.55 | < 4.00 | CC(C)n1ncc2c(Nc3cccc(Br)c3)nc(NCCO)nc21 | 2.19 µM | 6.46 µM | 4.28 µM |
| 4.44 | 4.53 | Cn1ncc2c(Nc3cccc(F)c3)nc(N(CCO)CCO)nc21 | 3.94 µM | 8.89 µM | 2.56 µM |
